From ChEMBL document CHEMBL3885861, “Open TG-GATES”

Species: Rattus norvegicus
Experiment: Open TG-GATES - Regimen: Daily Repeat
Type: toxicity, organism-based, Sprague-Dawley
Set-up: regimen Daily Repeat, gender Male, age 6 weeks
Details: in vivo, po, 6 mg/kg, route gavage, dose level High; for APTT / Bas / Eos / Fbg / Hb / Ht / Lym / MCH / MCHC / MCV / Mono / Neu / PT / Plat / RBC / Ret / WBC: tissue Blood; for KIDNEY_L / KIDNEY_R / KIDNEY_TOTAL: tissue Kidney; for LIVER: tissue Liver; for A/G / ALP / ALT / AST / BUN / CRE / Ca / Cl / DBIL / GLC / IP / K / LDH / Na / PL / RALB / TBIL / TC / TG / TP / gamma-GTP: tissue Plasma

Structure (SMILES): O=NN(CCCl)C(=O)NC1CCCCC1 [LOMUSTINE]
- TERMINAL_BW (72 h, time 3 day): 213.1 g
- APTT (72 h, time 3 day): 16.1 s
- Bas (72 h, time 3 day): 0%
- Eos (72 h, time 3 day): 0.6%
- Fbg (72 h, time 3 day): 212.8 mg/dL
- Hb (72 h, time 3 day): 13 g/dL
- Ht (72 h, time 3 day): 38.9%
- Lym (72 h, time 3 day): 86%
- MCH (72 h, time 3 day): 21.3 pg
- MCHC (72 h, time 3 day): 33.3%
- MCV (72 h, time 3 day): 64.1 fL
- Mono (72 h, time 3 day): 5.6%
- Neu (72 h, time 3 day): 8%
- PT (72 h, time 3 day): 11.9 s
- Plat (72 h, time 3 day): 114.8 x10_4/uL
- RBC (72 h, time 3 day): 607.2 x10_4/ul
- Ret (72 h, time 3 day): 6.1%
- WBC (72 h, time 3 day): 100.8 x10_2/uL
- KIDNEY_L (72 h, time 3 day): 1 g
- KIDNEY_R (72 h, time 3 day): 1 g
- KIDNEY_TOTAL (72 h, time 3 day): 2 g
- LIVER (72 h, time 3 day): 10.2 g
- A/G (72 h, time 3 day): 2.2
- ALP (72 h, time 3 day): 1003.2 IU/L
- ALT (72 h, time 3 day): 30.4 IU/L
- AST (72 h, time 3 day): 65 IU/L
- BUN (72 h, time 3 day): 15.6 mg/dL
- CRE (72 h, time 3 day): 0.5 mg/dL
- Ca (72 h, time 3 day): 10.8 mg/dL
- Cl (72 h, time 3 day): 104.8 meq/L
- DBIL (72 h, time 3 day): 0.028 mg/dL
- GLC (72 h, time 3 day): 179 mg/dL
- IP (72 h, time 3 day): 9 mg/dL
- K (72 h, time 3 day): 4.7 meq/L
- LDH (72 h, time 3 day): 105.4 IU/L
- Na (72 h, time 3 day): 139 meq/L
- PL (72 h, time 3 day): 136.6 mg/dL
- RALB (72 h, time 3 day): 3.9 g/dL
- TBIL (72 h, time 3 day): 0.3 mg/dL
- TC (72 h, time 3 day): 75.6 mg/dL
- TG (72 h, time 3 day): 56.4 mg/dL
- TP (72 h, time 3 day): 5.8 g/dL
- gamma-GTP (72 h, time 3 day): 1.8 IU/L
- TERMINAL_BW ([…], time 7 day): 225.8 g
- TERMINAL_BW ([…], time 14 day): 229.7 g
- TERMINAL_BW ([…], time 28 day): 202.6 g
- APTT ([…], time 7 day): 15.7 s
- Bas ([…], time 7 day): 0%
- Eos ([…], time 7 day): 0.4%
- Fbg ([…], time 7 day): 237.4 mg/dL
- Hb ([…], time 7 day): 14.3 g/dL
- Ht ([…], time 7 day): 43.1%
- Lym ([…], time 7 day): 80.6%
- MCH ([…], time 7 day): 20.9 pg
- MCHC ([…], time 7 day): 33.3%
- MCV ([…], time 7 day): 62.9 fL
- Mono ([…], time 7 day): 8.8%
- Neu ([…], time 7 day): 10.2%
- PT ([…], time 7 day): 11.7 s
- Plat ([…], time 7 day): 124 x10_4/uL
- RBC ([…], time 7 day): 686.4 x10_4/ul
- Ret ([…], time 7 day): 3.4%
- WBC ([…], time 7 day): 73.5 x10_2/uL
- APTT ([…], time 14 day): 15.8 s
- Bas ([…], time 14 day): 0%
- Eos ([…], time 14 day): 0.6%
- Fbg ([…], time 14 day): 237.4 mg/dL
- Hb ([…], time 14 day): 15.1 g/dL
- Ht ([…], time 14 day): 44.8%
- Lym ([…], time 14 day): 75.4%
- MCH ([…], time 14 day): 20.1 pg
- MCHC ([…], time 14 day): 33.7%
- MCV ([…], time 14 day): 59.8 fL
- Mono ([…], time 14 day): 14.4%
- Neu ([…], time 14 day): 9.6%
- PT ([…], time 14 day): 11.2 s
- Plat ([…], time 14 day): 133.2 x10_4/uL
- RBC ([…], time 14 day): 750 x10_4/ul
- Ret ([…], time 14 day): 1.2%
- WBC ([…], time 14 day): 75.3 x10_2/uL
- APTT ([…], time 28 day): 15.2 s
- Bas ([…], time 28 day): 0%
- Eos ([…], time 28 day): 0.8%
- Fbg ([…], time 28 day): 255.7 mg/dL
- Hb ([…], time 28 day): 15.6 g/dL
- Ht ([…], time 28 day): 45.3%
- Lym ([…], time 28 day): 58.5%
- MCH ([…], time 28 day): 18.9 pg
- MCHC ([…], time 28 day): 34.5%
- MCV ([…], time 28 day): 54.6 fL
- Mono ([…], time 28 day): 22.5%
- Neu ([…], time 28 day): 18.8%
- PT ([…], time 28 day): 11.6 s
- Plat ([…], time 28 day): 121.1 x10_4/uL
- RBC ([…], time 28 day): 832.2 x10_4/ul
- Ret ([…], time 28 day): 2.5%
- WBC ([…], time 28 day): 114.2 x10_2/uL
- KIDNEY_L ([…], time 7 day): 1 g
- KIDNEY_R ([…], time 7 day): 1 g
- KIDNEY_TOTAL ([…], time 7 day): 2.1 g
- KIDNEY_L ([…], time 14 day): 1.1 g
- KIDNEY_R ([…], time 14 day): 1.1 g
- KIDNEY_TOTAL ([…], time 14 day): 2.1 g
- KIDNEY_L ([…], time 28 day): 1.4 g
- KIDNEY_R ([…], time 28 day): 1.3 g
- KIDNEY_TOTAL ([…], time 28 day): 2.7 g
- LIVER ([…], time 7 day): 10.6 g
- LIVER ([…], time 14 day): 10.5 g
- LIVER ([…], time 28 day): 9.5 g
- A/G ([…], time 7 day): 1.7
- ALP ([…], time 7 day): 656.6 IU/L
- ALT ([…], time 7 day): 48.4 IU/L
- AST ([…], time 7 day): 97 IU/L
- BUN ([…], time 7 day): 16.6 mg/dL
- CRE ([…], time 7 day): 0.5 mg/dL
- Ca ([…], time 7 day): 11.2 mg/dL
- Cl ([…], time 7 day): 105.6 meq/L
- DBIL ([…], time 7 day): 0.03 mg/dL
- GLC ([…], time 7 day): 170.4 mg/dL
- IP ([…], time 7 day): 7.3 mg/dL
- K ([…], time 7 day): 4.7 meq/L
- LDH ([…], time 7 day): 139.6 IU/L
- Na ([…], time 7 day): 139.2 meq/L
- PL ([…], time 7 day): 156 mg/dL
- RALB ([…], time 7 day): 3.8 g/dL
- TBIL ([…], time 7 day): 0.3 mg/dL
- TC ([…], time 7 day): 98.4 mg/dL
- TG ([…], time 7 day): 55.8 mg/dL
- TP ([…], time 7 day): 6.1 g/dL
- gamma-GTP ([…], time 7 day): 2.6 IU/L
- A/G ([…], time 14 day): 1.6
- ALP ([…], time 14 day): 694.4 IU/L
- ALT ([…], time 14 day): 101.6 IU/L
- AST ([…], time 14 day): 223.6 IU/L
- BUN ([…], time 14 day): 23.4 mg/dL
- CRE ([…], time 14 day): 0.6 mg/dL
- Ca ([…], time 14 day): 11.3 mg/dL
- Cl ([…], time 14 day): 105.8 meq/L
- DBIL ([…], time 14 day): 0.3 mg/dL
- GLC ([…], time 14 day): 159.8 mg/dL
- IP ([…], time 14 day): 6.4 mg/dL
- K ([…], time 14 day): 4.7 meq/L
- LDH ([…], time 14 day): 210.6 IU/L
- Na ([…], time 14 day): 139.6 meq/L
- PL ([…], time 14 day): 236.8 mg/dL
- RALB ([…], time 14 day): 3.8 g/dL
- TBIL ([…], time 14 day): 0.4 mg/dL
- TC ([…], time 14 day): 159.8 mg/dL
- TG ([…], time 14 day): 48.2 mg/dL
- TP ([…], time 14 day): 6.2 g/dL
- gamma-GTP ([…], time 14 day): 4.6 IU/L
- A/G ([…], time 28 day): 1.3
- ALP ([…], time 28 day): 520.8 IU/L
- ALT ([…], time 28 day): 153.2 IU/L
- AST ([…], time 28 day): 484.2 IU/L
- BUN ([…], time 28 day): 31.2 mg/dL
- CRE ([…], time 28 day): 0.2 mg/dL
- Ca ([…], time 28 day): 11.3 mg/dL
- Cl ([…], time 28 day): 106.2 meq/L
- DBIL ([…], time 28 day): 3.9 mg/dL
- GLC ([…], time 28 day): 137 mg/dL
- IP ([…], time 28 day): 5.9 mg/dL
- K ([…], time 28 day): 4.8 meq/L
- LDH ([…], time 28 day): 298.8 IU/L
- Na ([…], time 28 day): 142.2 meq/L
- PL ([…], time 28 day): 301 mg/dL
- RALB ([…], time 28 day): 3.5 g/dL
- TBIL ([…], time 28 day): 3.3 mg/dL
- TC ([…], time 28 day): 207.2 mg/dL
- TG ([…], time 28 day): 118 mg/dL
- TP ([…], time 28 day): 6.1 g/dL
- gamma-GTP ([…], time 28 day): 11.8 IU/L
